According to PubChem BioAssay AID248 (DTP/NCI, 2004):
Where “and” joins values, the source holds several entries; their conditions need not be identical. Identical values can stand only once. Toxic doses and inconclusive results are not listed.

System: L1210 leukemia ip in BDF1 mice, survival T/C
Assay: NCI In Vivo Anticancer Drug Screen. Data for tumor model L1210 Leukemia (intraperitoneal) in B6D2F1 (BDF1) mice
Conditions: endpoint: mean survival time, higher = longer survival
Summary of the method: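 Transplantable tumor model; survival measured in treated vs vehicle control mice. Value = treated/control.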

Which results are given for O=c1[nH]cc(N(CCCl)CCCl)c(=O)[nH]1?
T/C (dose: 0.04 mg/kg/injection, schedule: Q01DX001 (ip), vehicle: carboxymethylcellulose (CMC)): 106 % of control; T/C (dose: 0.05 mg/kg/injection, schedule: Q01DX Z (ip), vehicle: carboxymethylcellulose (CMC)): 107 % of control; T/C (dose: 0.05 mg/kg/injection, schedule: Q#A X Z (ip), vehicle: carboxymethylcellulose (CMC)): 101 % of control; T/C (dose: 0.07 mg/kg/injection, schedule: Q01DX001 (ip), vehicle: carboxymethylcellulose (CMC)): 101 % of control; T/C (dose: 0.07 mg/kg/injection, schedule: Q03DX006 (ip), vehicle: carboxymethylcellulose (CMC)): 123 % of control; T/C (dose: 0.09 mg/kg/injection, schedule: Q#A X Z (ip), vehicle: carboxymethylcellulose (CMC)): 106 % of control; T/C (dose: 0.1 mg/kg/injection, schedule: Q01DX Z (ip), vehicle: carboxymethylcellulose (CMC)): 102 % of control; T/C (dose: 0.1 mg/kg/injection, schedule: Q01DX Z (ip), vehicle: saline): 157 % of control; T/C (dose: 0.13 mg/kg/injection, schedule: Q01DX001 (ip), vehicle: carboxymethylcellulose (CMC)): 100 % of control; T/C (dose: 0.16 mg/kg/injection, schedule: Q07DX003 (ip), vehicle: carboxymethylcellulose (CMC)): 108 % of control; T/C (dose: 0.19 mg/kg/injection, schedule: Q#A X Z (ip), vehicle: carboxymethylcellulose (CMC)): 110 % of control; T/C (dose: 0.25 mg/kg/injection, schedule: Q01DX001 (ip), vehicle: carboxymethylcellulose (CMC)): 105 % of control; T/C (dose: 0.3 mg/kg/injection, schedule: Q01DX Z (ip), vehicle: saline): 159 % of control; T/C (dose: 0.3 mg/kg/injection, schedule: Q03DX006 (ip), vehicle: carboxymethylcellulose (CMC)): 109 % of control; T/C (dose: 0.32 mg/kg/injection, schedule: Q07DX003 (ip), vehicle: carboxymethylcellulose (CMC)): 102 % of control; T/C (dose: 0.37 mg/kg/injection, schedule: Q#A X Z (ip), vehicle: carboxymethylcellulose (CMC)): 119 % of control; T/C (dose: 0.38 mg/kg/injection, schedule: Q01DX006 (iv), vehicle: carboxymethylcellulose (CMC)): 91 % of control; T/C (dose: 0.38 mg/kg/injection, schedule: Q01DX Z (im), vehicle: carboxymethylcellulose (CMC)): 98 % of control; T/C (dose: 0.38 mg/kg/injection, schedule: Q01DX Z (sc), vehicle: carboxymethylcellulose (CMC)): 104 % of control; T/C (dose: 0.5 mg/kg/injection, schedule: Q01DX001 (ip), vehicle: carboxymethylcellulose (CMC)): 170 % of control; T/C (dose: 0.6 mg/kg/injection, schedule: Q03DX006 (ip), vehicle: carboxymethylcellulose (CMC)): 170 % of control; T/C (dose: 0.63 mg/kg/injection, schedule: Q07DX003 (ip), vehicle: carboxymethylcellulose (CMC)): 121 % of control; T/C (dose: 0.7 mg/kg/injection, schedule: Q01DX Z (ip), vehicle: saline): 101 % of control; T/C (dose: 0.75 mg/kg/injection, schedule: Q01DX006 (iv), vehicle: carboxymethylcellulose (CMC)): 110 % of control; T/C (dose: 0.75 mg/kg/injection, schedule: Q01DX015 (ip), vehicle: carboxymethylcellulose (CMC)): 178 % of control; T/C (dose: 0.75 mg/kg/injection, schedule: Q01DX Z (im), vehicle: carboxymethylcellulose (CMC)): 101 % of control; T/C (dose: 0.75 mg/kg/injection, schedule: Q01DX Z (ip), vehicle: carboxymethylcellulose (CMC)): 119 % of control; T/C (dose: 0.75 mg/kg/injection, schedule: Q01DX Z (sc), vehicle: carboxymethylcellulose (CMC)): 107 % of control; T/C (dose: 0.8 mg/kg/injection, schedule: Q01DX Z (ip), vehicle: other): 109 % of control; T/C (dose: 1.1 mg/kg/injection, schedule: Q01DX015 (ip), vehicle: carboxymethylcellulose (CMC)): 182 % of control; T/C (dose: 1.1 mg/kg/injection, schedule: Q03DX006 (ip), vehicle: carboxymethylcellulose (CMC)): 181 % of control; T/C (dose: 1.2 mg/kg/injection, schedule: Q01DX Z (ip), vehicle: alkali diluted with saline): 118 % of control; T/C (dose: 1.2 mg/kg/injection, schedule: Q01DX Z (ip), vehicle: saline): 159 % of control; T/C (dose: 1.25 mg/kg/injection, schedule: Q07DX003 (ip), vehicle: carboxymethylcellulose (CMC)): 114 % of control and 201 % of control; T/C (dose: 1.3 mg/kg/injection, schedule: Q01DX Z (ip), vehicle: other): 120 % of control; T/C (dose: 1.5 mg/kg/injection, schedule: Q01DX006 (iv), vehicle: carboxymethylcellulose (CMC)): 104 % of control and 109 % of control; T/C (dose: 1.5 mg/kg/injection, schedule: Q01DX Z (im), vehicle: carboxymethylcellulose (CMC)): 108 % of control; T/C (dose: 1.5 mg/kg/injection, schedule: Q01DX Z (ip), vehicle: carboxymethylcellulose (CMC)): 115 % of control; T/C (dose: 1.5 mg/kg/injection, schedule: Q01DX Z (oral), vehicle: carboxymethylcellulose (CMC)): 119 % of control; T/C (dose: 1.5 mg/kg/injection, schedule: Q01DX Z (sc), vehicle: carboxymethylcellulose (CMC)): 115 % of control; T/C (dose: 1.5 mg/kg/injection, schedule: Q#A X Z (ip), vehicle: carboxymethylcellulose (CMC)): 111 % of control; T/C (dose: 1.6 mg/kg/injection, schedule: Q01DX001 (ip), vehicle: gum acacia): 110 % of control; T/C (dose: 1.7 mg/kg/injection, schedule: Q01DX015 (ip), vehicle: carboxymethylcellulose (CMC)): 170 % of control; T/C (dose: 1.8 mg/kg/injection, schedule: Q01DX Z (ip), vehicle: alkali diluted with saline): 112 % of control; T/C (dose: 1.8 mg/kg/injection, schedule: Q01DX Z (ip), vehicle: other): 109 % of control; T/C (dose: 2.0 mg/kg/injection, schedule: Q01DX001 (ip), vehicle: carboxymethylcellulose (CMC)): 109 % of control and 123 % of control; T/C (dose: 2.4 mg/kg/injection, schedule: Q01DX001 (ip), vehicle: gum acacia): 186 % of control; T/C (dose: 2.5 mg/kg/injection, schedule: Q01DX Z (ip), vehicle: alkali diluted with saline): 116 % of control; T/C (dose: 2.7 mg/kg/injection, schedule: Q01DX Z (ip), vehicle: other): 124 % of control; T/C (dose: 3.0 mg/kg/injection, schedule: Q01DX006 (iv), vehicle: carboxymethylcellulose (CMC)): 112 % of control; T/C (dose: 3.0 mg/kg/injection, schedule: Q01DX Z (ip), vehicle: carboxymethylcellulose (CMC)): 105 % of control and 115 % of control; T/C (dose: 3.0 mg/kg/injection, schedule: Q01DX Z (ip), vehicle: saline): 112 % of control; T/C (dose: 3.6 mg/kg/injection, schedule: Q01DX001 (ip), vehicle: carboxymethylcellulose (CMC)): 163 % of control; T/C (dose: 3.6 mg/kg/injection, schedule: Q01DX001 (ip), vehicle: gum acacia): 150 % of control; T/C (dose: 3.7 mg/kg/injection, schedule: Q01DX Z (ip), vehicle: saline): 90 % of control; T/C (dose: 4.5 mg/kg/injection, schedule: Q03DX006 (ip), vehicle: carboxymethylcellulose (CMC)): 111 % of control; T/C (dose: 5.0 mg/kg/injection, schedule: Q01DX001 (ip), vehicle: carboxymethylcellulose (CMC)): 161 % of control; T/C (dose: 5.0 mg/kg/injection, schedule: Q07DX003 (ip), vehicle: carboxymethylcellulose (CMC)): 188 % of control; T/C (dose: 5.4 mg/kg/injection, schedule: Q01DX001 (ip), vehicle: gum acacia): 172 % of control and 330 % of control; T/C (dose: 6.0 mg/kg/injection, schedule: Q01DX Z (im), vehicle: carboxymethylcellulose (CMC)): 95 % of control; T/C (dose: 6.0 mg/kg/injection, schedule: Q01DX Z (oral), vehicle: carboxymethylcellulose (CMC)): 104 % of control; T/C (dose: 6.0 mg/kg/injection, schedule: Q01DX Z (sc), vehicle: carboxymethylcellulose (CMC)): 105 % of control; T/C (dose: 6.0 mg/kg/injection, schedule: Q#A X Z (ip), vehicle: carboxymethylcellulose (CMC)): 154 % of control; T/C (dose: 10.0 mg/kg/injection, schedule: Q01DX001 (ip), vehicle: carboxymethylcellulose (CMC)): 105 % of control and 123 % of control; T/C (dose: 12.0 mg/kg/injection, schedule: Q01DX006 (iv), vehicle: carboxymethylcellulose (CMC)): 115 % of control; T/C (dose: 20.0 mg/kg/injection, schedule: Q01DX001 (ip), vehicle: carboxymethylcellulose (CMC)): 120 % of control; T/C (dose: 29.0 micrograms/kg/injection, schedule: Q01DX Z (ip), vehicle: saline): 119 % of control; T/C (dose: 44.0 micrograms/kg/injection, schedule: Q01DX Z (ip), vehicle: saline): 121 % of control; T/C (dose: 100.0 micrograms/kg/injection, schedule: Q01DX Z (ip), vehicle: saline): 113 % of control

NC(N)=NCCCCCC(=O)Oc1ccc([N+](=O)[O-])cc1 was tested. Which T/C (dose: 50.0 mg/kg/injection, schedule: Q01DX009 (ip), vehicle: saline) did it give?
The T/C was 105 % of control.

And the T/C (dose: 100.0 mg/kg/injection, schedule: Q01DX009 (ip), vehicle: saline)?
Its T/C is 99 % of control and 100 % of control.

And the T/C (dose: 100.0 mg/kg/injection, schedule: Q04DX003 (ip), vehicle: saline)?
Its T/C is 92 % of control.

What about the T/C (dose: 200.0 mg/kg/injection, schedule: Q01DX009 (ip), vehicle: saline) of the same compound?
The T/C was 100 % of control and 101 % of control.

And the T/C (dose: 200.0 mg/kg/injection, schedule: Q04DX003 (ip), vehicle: saline)?
Its T/C is 92 % of control.

With CCC(=O)Nc1cccc(OC(=O)NC2CCCCC2)c1 as the compound, how does the T/C (dose: 100.0 mg/kg/injection, schedule: Q04DX003 (ip), vehicle: saline with Tween-80) read?
The T/C was 102 % of control.

And the T/C (dose: 200.0 mg/kg/injection, schedule: Q04DX003 (ip), vehicle: saline with Tween-80)?
Its T/C is 98 % of control.

And the T/C (dose: 400.0 mg/kg/injection, schedule: Q04DX003 (ip), vehicle: saline with Tween-80)?
Its T/C is 91 % of control.
